Some test systems named below: KM12 colon; 786-0 renal; M14 melanoma; CAKI-1 renal; SW-620 colon; HOP-62 NSCLC; MCF7 breast; T-47D breast; PC-3 prostate.
What all share (assay): NCI-60 cell line screen, 48 h

Molecules are shown by their SMILES.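 Each compound was tested at five concentrations against cells in 96-well plates for 48 hours. The concentration for 50% growth inhibition is given as GI50. TGI is the concentration that stops growth completely.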 Bounds are passed on as bounds.

As for `CC(C)(C)c1cc(CCC(=O)Nc2ccc(Cl)cc2Cl)nc(N)n1`, the TGI in the assay with KM12 colon, in the assay with 786-0 renal, with M14 melanoma, with CAKI-1 renal, in the assay with SW-620 colon and in the assay on HOP-62 NSCLC was over 100 µM in each case.

Regarding `C=CC1=CC(C)C[C@]1(O)C(=O)OC` (some centres not stated), the GI50 with KM12 colon was over 100 µM; in the assay with 786-0 renal it was over 100 µM; with M14 melanoma it was over 100 µM; in the assay on CAKI-1 renal, over 100 µM; in the assay with SW-620 colon, under 0.01 µM; in the assay on HOP-62 NSCLC it was over 100 µM.

`Cc1nnc(N=Nc2c(O)[nH]c3ccccc23)n1N`: the TGI with KM12 colon, in the assay on 786-0 renal, with M14 melanoma, with CAKI-1 renal, with SW-620 colon and with HOP-62 NSCLC was over 100 µM each time.

In the case of `CC1=C(C(=O)CC(=O)C(=O)NC2C3CC4CC(C3)CC2C4)Sc2ccccc2N1` (configuration not stated), the TGI in the assay with KM12 colon, in the assay with 786-0 renal, in the assay on M14 melanoma, with CAKI-1 renal, in the assay with SW-620 colon and in the assay on HOP-62 NSCLC was over 100 µM each time.

With `CCCCCCCCCC(=O)Oc1cccc2onc(C)c12`, the TGI with KM12 colon, in the assay on 786-0 renal, in the assay on M14 melanoma, in the assay with CAKI-1 renal, in the assay on SW-620 colon and with HOP-62 NSCLC was over 100 µM in each case.

As for `Cc1ccccc1NC(=O)C(=O)CC(=O)c1ccc([N+](=O)[O-])cc1`, the TGI in the assay on KM12 colon, in the assay on 786-0 renal, in the assay with M14 melanoma, in the assay with CAKI-1 renal, in the assay with SW-620 colon and in the assay with HOP-62 NSCLC was over 100 µM throughout.

On to `CCOC(=O)C[C@@]12CCCNC1(C)CCc1ccccc12` (some centres not stated), for which the TGI with KM12 colon, with 786-0 renal, in the assay with M14 melanoma, with SW-620 colon and in the assay with HOP-62 NSCLC was over 100 µM in each case.

In the case of `CC(=O)[CH-]C(=O)c1ccccc1.CC(=O)[CH-]C(=O)c1ccccc1.[CH2-]CCC.[CH2-]CCC.[Sn+4]`, the GI50 with KM12 colon is 1.41 µM; with 786-0 renal, 1.09 µM; in the assay on M14 melanoma it was 1.16 µM; with CAKI-1 renal it was 0.322 µM; in the assay with SW-620 colon, 0.283 µM. Also, the TGI turned out to be 2.76 µM with KM12 colon; 2.28 µM with 786-0 renal; 2.62 µM with M14 melanoma; 1.22 µM in the assay with CAKI-1 renal; 0.964 µM with SW-620 colon.

For `C[N+](C)=c1nc(N2CCOCC2)ss1`, the TGI with KM12 colon, with 786-0 renal, in the assay on M14 melanoma, in the assay on CAKI-1 renal, in the assay on SW-620 colon and in the assay with HOP-62 NSCLC was over 100 µM throughout.

Turning to `C/C(=N/NC(=O)CC(=O)N(C(=O)c1ccccc1Cl)c1ccc(C)cc1)c1cc2ccccc2oc1=O`, the TGI in the assay with KM12 colon, with 786-0 renal, in the assay with M14 melanoma, in the assay with CAKI-1 renal, in the assay on SW-620 colon and with HOP-62 NSCLC was over 100 µM each time.

For the compound `O=C(O)[C@@H]1CCCC[C@@H]1C(=O)N(C1CCCCC1)C1CCCCC1`, the TGI in the assay with KM12 colon, in the assay with 786-0 renal, in the assay on M14 melanoma, in the assay on CAKI-1 renal, in the assay with SW-620 colon and in the assay on HOP-62 NSCLC was over 100 µM throughout.

As for `COc1ccc(CC2=NCCc3cc(OC)c(OC)cc32)cc1Br`, the TGI was 84.4 µM in the assay on KM12 colon; over 100 µM with 786-0 renal; 59.3 µM in the assay with CAKI-1 renal; over 100 µM in the assay on SW-620 colon; over 100 µM in the assay on HOP-62 NSCLC.

`CC1(C)CC(=O)c2c(oc3cc(O)c(O)cc23)C1`: the TGI is 77.4 µM in the assay with KM12 colon; over 100 µM in the assay with 786-0 renal; 53.9 µM in the assay on M14 melanoma; 76.6 µM in the assay with CAKI-1 renal; 37.2 µM in the assay with SW-620 colon; over 100 µM in the assay on HOP-62 NSCLC.

In the case of `NC(=O)C(=O)n1ncc(Cl)c(Cl)c1=O`, the TGI with KM12 colon was 62.5 µM; with 786-0 renal, 58.5 µM; in the assay with MCF7 breast it was over 100 µM; with M14 melanoma it was 46.9 µM; with CAKI-1 renal, 43.5 µM; with SW-620 colon, 35.3 µM. The TGI in the assay on HOP-62 NSCLC and in the assay on T-47D breast was over 100 µM in each case.

For `c1ccc(NC[Si]23OCCN(CCO2)CCO3)cc1`, the TGI in the assay with KM12 colon, in the assay with 786-0 renal, in the assay with CAKI-1 renal and in the assay on SW-620 colon was over 100 µM throughout.

Take `COc1ccc2[nH]c3c(=O)[nH]ncc3c2c1`: the TGI with KM12 colon, in the assay with 786-0 renal, in the assay with M14 melanoma, in the assay on SW-620 colon and in the assay on HOP-62 NSCLC was over 100 µM throughout.

On to `NC(=O)c1c[se]c(C2OC(COP(=O)(O)CP(=O)(O)OCC3OC(n4cnc5c(N)ncnc54)C(O)C3O)C(O)C2O)n1` (configuration not stated), for which the TGI with KM12 colon, in the assay with 786-0 renal, with M14 melanoma, in the assay on CAKI-1 renal, in the assay on SW-620 colon and in the assay with HOP-62 NSCLC was over 100 µM throughout.

Consider `O=C1C(c2ccccc2)=C(c2ccccc2)[C@H](c2ccccc2)[C@]1(Cc1nnn(-c2ccc([N+](=O)[O-])cc2)c1N1CCOCC1)c1ccccc1`, for which the TGI in the assay with 786-0 renal, in the assay with M14 melanoma, in the assay with CAKI-1 renal, in the assay on SW-620 colon and in the assay with HOP-62 NSCLC was over 37.5 µM throughout.

As for `COC(=O)C1(F)C(=O)NC(=O)NC1OC` (configuration not stated), the TGI in the assay with KM12 colon, in the assay with 786-0 renal, in the assay with CAKI-1 renal, in the assay on SW-620 colon and in the assay with HOP-62 NSCLC was over 100 µM in each case.

For the compound `CC[P+]1(CC)CCCC1`, the TGI with KM12 colon, in the assay with 786-0 renal, with M14 melanoma, with CAKI-1 renal, with SW-620 colon and in the assay with HOP-62 NSCLC was over 100 µM each time.

Take `COc1cc(O)c(C(C)=O)c(O)c1`: the TGI with KM12 colon, in the assay with 786-0 renal, in the assay on MCF7 breast, with PC-3 prostate, with M14 melanoma and in the assay with SW-620 colon was over 100 µM in each case. For the same compound, the TGI in the assay with HOP-62 NSCLC and in the assay with T-47D breast was over 100 µM throughout.

In the case of `NS(=O)(=O)c1ccc(NC(=O)c2cccn3c(=O)c4ccccc4nc23)cc1`, the TGI in the assay on KM12 colon, in the assay with 786-0 renal, in the assay on M14 melanoma, in the assay with CAKI-1 renal, with SW-620 colon and with HOP-62 NSCLC was over 100 µM in each case.

For the compound `COC(=O)c1cc2c3c(ccc2[nH]1)N(C(=O)c1cc2c4c(ccc2[nH]1)N(C(=O)c1cc2c5c(ccc2[nH]1)N(C(N)=O)CC5)CC4)CC3`, the TGI in the assay on KM12 colon was over 100 µM; in the assay with 786-0 renal, over 31.9 µM; with M14 melanoma, over 21.3 µM; in the assay with CAKI-1 renal, 8.95 µM; in the assay on SW-620 colon, over 100 µM; in the assay on HOP-62 NSCLC, 7.83 µM.

As for `CC1(C)OC(COCCOCCCCCO)C(COCCOCCCCCO)O1` (configuration not stated), the TGI in the assay with KM12 colon, with 786-0 renal, in the assay with M14 melanoma, with CAKI-1 renal, in the assay on SW-620 colon and in the assay on HOP-62 NSCLC was over 100 µM throughout.

As to `C[C@@]12CCCC(=O)N1[C@@H](CO)C(c1ccccc1)O2` (some centres not stated), the TGI with KM12 colon, in the assay with 786-0 renal, in the assay with CAKI-1 renal, in the assay on SW-620 colon and in the assay on HOP-62 NSCLC was over 100 µM throughout.

For `O=[N+]([O-])C1C2C=CC(C2)[C@H]1c1ccc(Cl)cc1Cl` (some centres not stated), the TGI with KM12 colon, in the assay with 786-0 renal and in the assay with SW-620 colon was over 100 µM throughout.

For the compound `COc1nc2c(c(O)c(C)c(=O)n2OC2OC(COC(C)=O)C(OC(C)=O)C(OC(C)=O)C2OC(C)=O)c(=O)n1C` (configuration not stated), the TGI in the assay with KM12 colon, in the assay with 786-0 renal, in the assay on M14 melanoma, with SW-620 colon and in the assay on HOP-62 NSCLC was over 100 µM each time.

Consider `COc1ccc(C2NCCc3c2[nH]c2ccccc32)cc1` (configuration not stated), for which the TGI in the assay with KM12 colon, with 786-0 renal, in the assay on M14 melanoma, with SW-620 colon and with HOP-62 NSCLC was over 100 µM throughout.

With `CC(=O)OCCC(O[Si](c1ccccc1)(c1ccccc1)C(C)(C)C)C(C)(C)O` (configuration not stated), the TGI in the assay with KM12 colon is 55 µM; in the assay on 786-0 renal it was 77.2 µM; in the assay with M14 melanoma it was over 100 µM; in the assay on SW-620 colon, over 100 µM.

The record behind these values is PubChem BioAssay (NCI).
